Reference: patent US20090093501A1, “Heterocyclic antiviral compounds” (Roche Palo Alto LLC, priority 2007, published 2009)
pIC50: −log10 of the molar value.

Assays:
CCR5 = molecular target: T1, CCR5 (Homo sapiens, UniProt P51681); assay: CCR5-mediated cell-cell fusion (CCF) assay; type: cell-based; details: Hela-R5 cells co-cultured with CEM-NKr-CCR5-Luc cells, 24 hrs, luciferase readout
T1 construct: host or cells: CEM-NKr-CCR5-Luc cells, co-cultured with Hela-R5 cells expressing gp160 and HIV-1 Tat
T1 sequence (P51681 whole entry, the tested form may be a part): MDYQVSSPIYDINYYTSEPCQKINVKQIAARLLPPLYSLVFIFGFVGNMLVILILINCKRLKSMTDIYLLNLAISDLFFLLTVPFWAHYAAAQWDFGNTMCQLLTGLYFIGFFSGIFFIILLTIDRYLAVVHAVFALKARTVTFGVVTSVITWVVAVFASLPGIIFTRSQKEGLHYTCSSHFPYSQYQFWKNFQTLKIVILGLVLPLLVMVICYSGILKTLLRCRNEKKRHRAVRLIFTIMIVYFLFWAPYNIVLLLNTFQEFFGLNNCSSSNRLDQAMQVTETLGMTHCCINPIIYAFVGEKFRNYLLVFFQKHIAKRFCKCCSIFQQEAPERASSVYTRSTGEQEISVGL
Description: CCF assay was performed as described before (C. Ji, J. Zhang, N. Cammack and S. Sankuratri, J. Biomol. Screen. 2006 11(6):652-663). Hela-R5 cells (express gp160 from R5-tropic virus and HIV-1 Tat) were plated in 384 well white culture plates (BD Bioscience, Palo Alto, Calif.) at 7.5×10^3 cells per well in phenol red-free Dulbecco's Modified Eagle Medium (DMEM) supplemented with 10% FBS, 1× Pen-Strep, 300 μg/mL G418, 100 μg/mL hygromycin, and 1 μg/mL Doxycycline (Dox) (BD Bioscience, Palo Alto, Calif.), using Multimek (Beckman, Fullerton, Calif.) and incubated at 37° C. overnight to induce the expression of gp160. Ten μL diluted compounds in medium containing 5% DMSO were added to the cells, followed by the addition of CEM-NKr-CCR5-Luc (obtained from NIH AIDS Research & Reference Reagents Program) that expresses CD4 and CCR5 and carries a […] long terminal repeat (LTR)-driven luciferase reporter gene at 1.5×10^4 cells/15 μL/well and incubated for 24 hrs. At the end of co-culture, 15 μL of Steady-Glo luciferase substrate was added into each well, and the cultures were sealed and gently shaken for 45 min. The luciferase activity were measured for 10 sec per well as luminescence by using 16-channel TopCount NXT (PerkinElmer, Shelton, Conn.) with 10 min dark adaptation and the readout is count per second (CPS). For the drug interaction experiments, small molecule compounds or antibodies were serially diluted in serum-free and phenol red-free RPMI containing 5% DMSO (CalBiochem, La Jolla, Calif.) and 1× Pen-Strep5 μL each of the two diluted compound or mAb to be tested for drug-drug interactions were added to the Hela-R5 cells right before the addition of target cells. Representative results are compiled in TABLE II

Row | Structure (SMILES) | pIC50 (CCR5) | melting point
1 | CCCCC1C(=O)N(CC2CCOCC2)CCC12CCN(C1(C)CCN(C(=O)c3c(C)ncnc3C)CC1)CC2 (stereo not shown) [I-3, 1-Butyl-9-[1-(4,6-dimethyl-pyrimidine-5-carbonyl)-4-methyl-piperidin-4-yl]-3-(tetrahydro-pyran-4-ylmethyl)-3,9-diaza-spiro[5.5]undecan-2-one] | 8.02 | 
2 | CCCCC1C(=O)N(CC2CCN(C(=O)OC)CC2)CCC12CCN(C1(C)CCN(C(=O)c3c(C)ncnc3C)CC1)CC2 (stereo not shown) [I-19, 4-{1-Butyl-9-[1-(4,6-dimethyl-pyrimidine-5-carbonyl)-4-methyl-piperidin-4-yl]-2-oxo-3,9-diaza-spiro[5.5]undec-3-ylmethyl}-piperidine-1-carboxylic acid methyl ester] | 8.11 | 
3 | CCCCC1CN(S(=O)(=O)C2CCN(C(C)=O)CC2)CCC12CCN(C1(C)CCN(C(=O)c3c(C)ncnc3C)CC1)CC2 (stereo not shown) [I-25] | 8.01 | 113 to 120 °C
